According to patent publication US20260216239A1 (Arizona Board of Regents on Behalf of the University of …, priority 2020, published 2026):
Entries after “also recorded” stand apart in the source; their conditions may differ.

Experiments:
[1] = system: Pseudonaja textilis venom; assay: Thrombelastography in human plasma of venom procoagulant activity after isolated exposure of venom to compounds; type: biochemical; conditions: for maximum rate of thrombus generation (MRTG) / total thrombus generation (TTG), clot strength: 100 μM CORM-3, 100 μM RuCl3 or both; for maximum rate of thrombus generation (MRTG) / total thrombus generation (TTG), clot strength / time to maximum rate of thrombus generation (TMRTG): venom 0.1 μg/ml in plasma; for time to maximum rate of thrombus generation (TMRTG): venom exposed 5 min in PBS to 100 μM CORM-3, 100 μM RuCl3 or both
Experimental: […] A sample of each of these venom mixtures was then placed into human plasma (0.1 μg/ml final concentration of venom), with coagulation determined by thrombelastography until final clot strength stabilized.
All venom solutions without or with chemical additions in isolation were added as a 1% addition to the plasma mix used in our thrombelastographic system (see, Nielsen, V. G.; et al., Biometals 2016, 29, 913-919; Nielsen, V. G.; Losada, P. A. Basic Clin. Pharmacol. Toxicol. 2017, 120, 207-212; Nielsen, V. G.; Frank, N. J. Thromb. Thrombolysis 2019, 47, 533-539; Nielsen, V. G.; Bazzell, C. M. J. Thromb. Thrombolysis 2017, 43, 203-208; Nielsen, V. G.; Matika, R. W. Hum. Exp. Toxicol. 2017, 36, 727-733; Nielsen, V. G.; et al., Toxins 2018, 10, 322; Nielsen, V. G.; et al., Biometals 2018, 31, 51-59; Nielsen, V. G.; Frank, N. et al., Biometals 2018, 31, 951-959; Nielsen, V. G.; et al., Toxins 2019, 11, 94; Nielsen, V. G.; Frank, N. Hum Exp. Toxicol. 2019, 38, 216-226; Nielsen, V. G. J. Thromb. Thrombolysis 2019, 48, 256-262; Nielsen, V. G.; et al., Blood Coagul. Fibrinolysis 2019, 30, 379-384; Nielsen, V. G. J. Thromb. Thrombolysis 2019, 47, 73-79; Gessner, G.; et al., Eur. J. Pharmacol. 2017, 815, 33-41). […] The thrombelastographic model describes coagulation kinetics with the following three variables: time to maximum thrombus generation (TMRTG, minutes—a measure of time to onset of coagulation), maximum rate of thrombus generation (MRTG, dynes/cm^2/s—a measure of the velocity of clot growth) and total thrombus generation (TTG, dynes/cm^2—a measure of clot strength).
The volumes of subsequently described plasmatic and other additives summed to a final volume of 360 μL. Samples were composed of 320 μL of plasma; 16.4 μL of PBS, 20 μL of 200 mM CaCl2), and 3.6 μL of PBS, RuCl3, or venom solution mixture, which were pipetted into a disposable cup in a Thrombelastograph® hemostasis system (Model 5000, Haemonetics Inc., Braintree, MA, USA) at 37° C., and then rapidly mixed by moving the cup up against and then away from the plastic pin five times. The PBS, RuCl3, or venom solution mixtures was always the last constituent added prior to mixing and data collection. The following viscoelastic parameters described previously (see, Nielsen, V. G.; et al., Biometals 2016, 29, 913-919; Nielsen, V. G.; Losada, P. A. Basic Clin. Pharmacol. Toxicol. 2017, 120, 207-212; Nielsen, V. G.; Frank, N. J. Thromb. Thrombolysis 2019, 47, 533-539; Nielsen, V. G.; Bazzell, C. M. J. Thromb. Thrombolysis 2017, 43, 203-208; Nielsen, V. G.; Matika, R. W. Hum. Exp. Toxicol. 2017, 36, 727-733; Nielsen, V. G.; et al., Toxins 2018, 10, 322; Nielsen, V. G.; et al., Biometals 2018, 31, 51-59; Nielsen, V. G.; Frank, N. et al., Biometals 2018, 31, 951-959; Nielsen, V. G.; et al., Toxins 2019, 11, 94; Nielsen, V. G.; Frank, N. Hum Exp. Toxicol. 2019, 38, 216-226; Nielsen, V. G. J. Thromb. Thrombolysis 2019, 48, 256-262; Nielsen, V. G.; et al., Blood Coagul. Fibrinolysis 2019, 30, 379-384; Nielsen, V. G. J. Thromb.

human plasma = conditions: cited from earlier work

Compound	maximum rate of thrombus generation (MRTG) [1]	total thrombus generation (TTG), clot strength [1]	time to maximum rate of thrombus generation (TMRTG) [1]	human plasmatic coagulation (human plasma; RuCl3 at or below 1 μM)	procoagulant activity of venom ([1]; venom exposed 5 min to 100 μM RuCl3 in PBS, venom 100 ng/mL in plasma (Example III))	coagulation kinetics (human plasma; 1 μM CORM-2)	plasmatic coagulation kinetics (human plasma; up to 10 μM CORM-2 in PBS)	procoagulant activity of venom ([1]; venom exposed 5 min to 100 μM CORM-2 in 5% human albumin, venom 100 ng/mL in plasma)	procoagulant activity of venom ([1]; venom exposed 5 min to 100 μM CORM-2 in PBS, venom 100 ng/mL in plasma)
Tricarbonylchloro(glycinato)ruthenium [CORM-3]	significantly decreased; also recorded: decrease	enhanced; also recorded: increase	significantly increased; also recorded: significant increase	–	–	–	–	–	–
[Cl][Ru]([Cl])[Cl] [RuCl3, ruthenium(III) chloride]	significantly decreased; also recorded: decrease	enhanced; also recorded: increase	significantly increased; also recorded: significant increase	does not significantly affect	significant loss of procoagulant activity	–	–	–	–
[C-]#[O+].[C-]#[O+].[C-]#[O+].[C-]#[O+].[C-]#[O+].[C-]#[O+].[Cl][Ru][Cl].[Cl][Ru][Cl] [CORM-2, tricarbonyldichlororuthenium(II) dimer]	–	–	–	–	–	does not affect	no effect	uninhibited	significantly attenuated
